What was measured:
[1] = test system: DsRed-IRES-tau EGFP HEK293 cells; assay: Flow cytometry of DsRed-IRES-tau EGFP HEK293 cells (tau clearance); format: cell-based, human; settings: 5 μM compound with 100 nM TG for 20 hours
DNAJC3 [2] = biological target: T1, DNAJC3 (Homo sapiens, UniProt Q13217); assay: Surface plasmon resonance assay; format: binding; settings: various concentrations, PBS pH 7.3, 25° C.
T1 sequence (Q13217 32-504): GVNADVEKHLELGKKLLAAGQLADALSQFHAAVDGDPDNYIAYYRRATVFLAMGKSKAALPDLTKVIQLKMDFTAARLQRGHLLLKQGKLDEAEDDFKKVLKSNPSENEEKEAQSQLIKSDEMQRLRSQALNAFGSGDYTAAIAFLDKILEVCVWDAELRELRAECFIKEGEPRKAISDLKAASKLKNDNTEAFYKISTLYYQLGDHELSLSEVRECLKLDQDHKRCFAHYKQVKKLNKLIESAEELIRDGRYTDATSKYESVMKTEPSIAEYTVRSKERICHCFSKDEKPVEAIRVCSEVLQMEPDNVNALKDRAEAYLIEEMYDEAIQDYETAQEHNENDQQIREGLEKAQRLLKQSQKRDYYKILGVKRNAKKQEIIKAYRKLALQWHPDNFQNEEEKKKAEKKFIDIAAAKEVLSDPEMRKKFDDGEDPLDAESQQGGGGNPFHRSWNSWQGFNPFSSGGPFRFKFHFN
Experimental: (§1) Surface plasmon resonance (SPR) assays were performed using a Biacore T100 instrument (GE Healthcare). The recombinant PDIA3 or DNAJC3 protein was immobilized on the CM5 sensor chip (GE Healthcare) through an amide bond by activating the carboxy group on the CM5 sensor chip with a 1:1 mixture of N-ethyl-N′-(3-dimethylaminopropyl)-carbodiimide and N-hydroxysuccinimide. Protein immobilization reactions were performed in PBS containing 0.005% Tween 20 at pH 4.7 and pH 5.0 for PDIA3 and DNAJC3, respectively. Binding between compounds and proteins was monitored by injecting compounds at various concentrations into PBS (pH 7.3) containing 3% DMSO and 0.005% Tween 20 at 25° C. Data were analyzed to calculate kinetic parameters by fitting sensor grams with a 1:1 binding model using Biacore T100 evaluation software (GE Healthcare).
(§2) Additionally, it was confirmed whether SB1617 directly binds to PDIA3 and DNAJC3 through surface plasmon resonance (SPR) of Examples 1-11.

PDIA3 [3] = biological target: T2, PDIA3 (Homo sapiens, UniProt P30101); assay: Surface plasmon resonance assay; format: binding; settings: various concentrations, PBS pH 7.3, 25° C.
T2 sequence (P30101 25-505): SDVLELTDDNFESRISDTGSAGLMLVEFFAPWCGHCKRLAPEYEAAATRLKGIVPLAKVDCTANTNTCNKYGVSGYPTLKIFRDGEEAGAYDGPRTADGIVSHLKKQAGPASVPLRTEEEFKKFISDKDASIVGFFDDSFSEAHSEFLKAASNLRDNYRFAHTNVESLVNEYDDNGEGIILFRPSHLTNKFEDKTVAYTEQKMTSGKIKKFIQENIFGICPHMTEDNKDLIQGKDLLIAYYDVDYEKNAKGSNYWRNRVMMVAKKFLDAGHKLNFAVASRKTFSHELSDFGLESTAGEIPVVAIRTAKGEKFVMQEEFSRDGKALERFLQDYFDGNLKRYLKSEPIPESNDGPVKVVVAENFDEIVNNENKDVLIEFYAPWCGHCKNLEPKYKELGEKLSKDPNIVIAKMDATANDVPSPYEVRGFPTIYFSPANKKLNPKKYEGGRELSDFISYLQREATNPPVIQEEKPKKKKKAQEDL
Experimental: as §1, §2

DNAJC3 [4] = biological target: T1, DNAJC3; assay: CETSA and pull-down assay with probe SB1624; format: binding; set-up: endogenous in cells; host or cells: HEK293 BiFC-tau cells (TS-FITGE, CETSA); SH-SY5Y cells (pull-down with probe SB1624); settings: CETSA 10 μM in HEK293 BiFC-tau cells; pull-down 5 μM SB1624 with or without 40 μM SB1617 in SH-SY5Y cells
Experimental: (§3) HEK293 BiFC-tau cells were treated with DMSO (0.1%) and a compound according to the present invention (10 μM) in the presence of thapsigargin (200 nM) for 3 hours. The cell suspension was heated at the indicated temperature range for 3 minutes and then at 25° C. for 3 minutes. The heated cells were washed with PBS and resuspended in Lysis Buffer A. For cell lysis, cell suspensions were freeze-thawed in liquid nitrogen three times. The cell lysate was washed by centrifugation at 20000 g, 4° C. for 20 minutes. Equal volumes of washed cell lysate were combined with SDS buffer and subjected to immunoblotting.
(§4) SH-SY5Y cells were seeded in 6-well plates and then treated with 1 μM thapsigargin and 5 μM SB1624 (probe compound) for 2.5 hours with or without 40 μM SB1617. Cells were exposed to 356 nm UV irradiation for 30 min on ice. After washing with cold PBS, cells were lysed in RIPA buffer and removed by centrifugation at […] for 15 minutes at 4° C. The protein concentration of the supernatant was determined by Pierce BCA Protein Assay Kit and the protein concentration was adjusted to 1 mg/mL. […] Proteins were eluted by boiling with 3×SDS sample buffer and analyzed by SDS-PAGE and Western blot. […]

PDIA3 [5] = biological target: T2, PDIA3; assay: CETSA and pull-down assay with probe SB1624; format: binding; set-up: endogenous in cells; host or cells: HEK293 BiFC-tau cells (TS-FITGE, CETSA, PEG-maleimide assay); SH-SY5Y cells (pull-down with probe SB1624); settings: CETSA 10 μM in HEK293 BiFC-tau cells; pull-down 5 μM SB1624 with or without 40 μM SB1617 in SH-SY5Y cells
Experimental: as §3, §4

CN(Cc1ccc(Cl)cc1)c1ncnc2c1[C@@H]1OC[C@H](CN2)N1S(=O)(=O)c1ccc([N+](=O)[O-])cc1 [Compound 117]
EGFP-to-DsRed signal ratio [1]: decreased
direct binding (SPR) (DNAJC3 [2]): binds directly
direct binding (SPR) (PDIA3 [3]): binds directly
specific binding (CETSA, pull-down) (DNAJC3 [4]): specifically binds
specific binding (CETSA, pull-down) (PDIA3 [5]): specifically binds

From US20230322805A1, “NOVEL PYRIMIDODIAZEPINE DERIVATIVES OR USES THEREOF” (SPARK BIOPHARMA, INC., priority 2020, published 2023)
